Data from US8841425B2, “Cytotoxic agents comprising new maytansinoids” (ImmunoGen, Inc., priority 2003, dated 2014).
Entries after “also recorded” stand apart in the source; their conditions may differ.

B1: huMy9-6-DM1: huMy9-6 conjugate of a previously described maytansinoid (DM1) (conjugate, chains of the INN, looked up)
VH: QVQLVESGGGVVQPGRSLRLSCAASGFTFSSFGMHWVRQAPGKGLEWVAYISSGSFTIYYADSVKGRFTISRDNSKNTLYLQMNSLRAEDTAVYYCARMRKGYAMDYWGQGTLVTVSS
VL: DVVMTQSPLSLPVTLGQPASISCRSSQIIIHSDGNTYLEWFQQRPGQSPRRLIYKVSNRFSGVPDRFSGSGSGTDFTLKISRVEAEDVGVYYCFQGSHVPHTFGQGTKVEIK
modifications: DM1 maytansinoid conjugate
B2: huC242-DM3: huC242 antibody linked to DM3 (4a), on the average 3.2-3.5 DM3 molecules per antibody molecule (conjugate, chains of the INN, looked up)
VH: QVQLVQSGAEVKKPGETVKISCKASDYTFTYYGMNWVKQAPGQGLKWMGWIDTTTGEPTYAQKFQGRIAFSLETSASTAYLQIKSLKSEDTATYFCARRGPYNWYFDVWGQGTTVTVSS
VL: DIVMTQSPLSVPVTPGEPVSISCRSSKSLLHSNGNTYLYWFLQRPGQSPQLLIYRMSNLVSGVPDRFSGSGSGTAFTLRISRVEAEDVGVYYCLQHLEYPFTFGPGTKLELK
modifications: DM3 maytansinoid conjugate
notes: huC242 antibody linked to DM3 (4a), on the average 3.2-3.5 DM3 molecules per antibody molecule
B3: huC242-DM4: huC242 antibody linked to DM4 (4b), on the average 3.2-3.5 DM4 molecules per antibody molecule (conjugate, chains of the INN, looked up)
VH: B2 VH
VL: B2 VL
modifications: DM4 maytansinoid conjugate
notes: huC242 antibody linked to DM4 (4b), on the average 3.2-3.5 DM4 molecules per antibody molecule

How the values were obtained:
[1] = tested on: human melanoma cell line A-375; assay: In vitro cytotoxicity, clonogenic assay, A-375 cells; type: cell-based; settings: for IC50: free maytansinoid, 72 hours exposure, clonogenic assay, read-out: IC50 towards A-375 cells; for fold less sensitive, antigen negative A-375 cells versus COLO 205 cells: antibody-maytansinoid conjugate
Description: (§1) The KB (ATCC CCl-17) cell line is of human epithelial origin. The SK-BR-3 (ATCC HTB-30) cell line was established from a human breast adenocarcinoma. The human colon tumor cell lines COLO 205 (ATCC CCL-222) and HT-29 (ATCC HTB 38), the human melanoma cell line A-375 (ATCC CRL 1619), the human Burkitts lymphoma cell line Ramos (ATCC CRL-1596) and the human myeloid leukemia cell line HL-60 (ATCC CCL-240) were all obtained from ATCC, Maryland. Cell lines were grown in Dulbecco's modified Eagles Medium (DMEM, Biowhittaker, Walkersville, Md.) with L-glutamine supplemented with 10% fetal bovine serum (Hyclone, Logan, Utah) and 50 μg/mL gentamycin sulfate (Life Technologies, Rockville, Md.). Cells were maintained at 36-37.5° C. in a humidified atmosphere that contained 6% CO2.
(§2) The cytotoxicity study performed used a clonogenic assay. The test cell lines were plated into 6-well culture dishes at a constant number of 1000 cells per well. Cells were incubated with varying concentrations (0 to 3 nM) of the various maytansinoids (free or conjugated to antibodies) for 72 hours. The medium was then aspirated from the plates and replaced with fresh medium. Cultures were allowed to grow, and form colonies, for a total of 7-10 days after plating. The cultures were then fixed and stained with 0.2% crystal violet in 10% formalin/PBS and colonies were counted. Plating efficiency of non-treated cells (medium alone) was determined by dividing the number of colonies counted by the number of cells plated. Surviving fraction of cells exposed to the drugs was determined by dividing the number of colonies in wells that were exposed to the drug by the number of colonies in the control wells.

SK-BR-3 cells = assay: In vitro cytotoxicity, clonogenic assay, SK-BR-3 cells; type: cell-based, human; settings: free maytansinoid, 72 hours exposure, read-out: IC50 towards SK-Br-3 cells
Description: as §1
as §2, with “Cells were incubated with varying concentrations (0 to 3 nM) of the various maytansinoids (free or conjugated to antibodies) for 72 hours. The medium was then aspirated from the plates and replaced with fresh medium. Cultures were allowed to grow, and form colonies, for a total of 7-10 days after plating.” left out

L1210 cells = L1210 cells treated in vivo; cited from earlier work
[2] = tested on: human nasopharyngeal carcinoma cells; settings: cited from earlier work
[3] = tested on: human acute lymphoblastic leukemia line CEM; settings: in vitro; cited from earlier work
[4] = tested on: L1210 mouse leukemia system; settings: in vivo; cited from earlier work
[5] = tested on: Lewis lung carcinoma system; settings: in vivo; cited from earlier work
[6] = tested on: human B-16 melanocarcinoma system; settings: in vivo; cited from earlier work
[7] = tested on: human HL-60 tumor xenografts; assay: In vivo efficacy of huMy9-6-DM4 against HL-60 xenografts in SCID mice (FIG. 11); set-up: species or system mouse
Description: The efficacy of huMy9-6-DM4 in vivo was determined in SCID mice bearing human HL-60 tumor xenografts. HL-60 cells were injected subcutaneously and tumors were allowed to grow to an average size of 100 mm^3. Dosage is expressed as μg DM4 in the conjugate, which corresponds to an antibody dose of approximately 67 μg antibody per μg of DM4. […] The efficacy of huMy9-6-DM4 was also compared with that of huMy9-6-DM1. […] HuMy9-6-DM4 maintained the animals in complete remission (CR) for nearly sixty days, whereas animals treated with huMy9-6-DM1 relapsed after about 20 days in CR.

[8] = tested on: antigen positive COLO 205 cells; assay: In vitro cytotoxicity of antibody-maytansinoid conjugates, clonogenic assay, COLO 205 cells; type: cell-based, human; settings: antibody-maytansinoid conjugate; read-out: IC50 towards antigen positive COLO 205 cells
Description: Conjugates of cell-binding agents with maytansinoid drugs of the invention can be evaluated for their ability to suppress proliferation of various unwanted cell lines in vitro (FIG. 6). For example, cell lines such as the human colon carcinoma line COLO 205, the human melanoma cell line A-375, the human myeloid leukemia cell line HL60 can be used for the assessment of cytotoxicity of these conjugates. Cells to be evaluated can be exposed to the compounds for 24 hours and the surviving fractions of cells measured in direct assays by known methods. IC50 values can then be calculated from the results of the assays.
The KB (ATCC CCl-17) cell line is of human epithelial origin. The SK-BR-3 (ATCC HTB-30) cell line was established from a human breast adenocarcinoma. […]
The cytotoxicity study performed used a clonogenic assay. […] The cultures were then fixed and stained with 0.2% crystal violet in 10% formalin/PBS and colonies were counted. Plating efficiency of non-treated cells (medium alone) was determined by dividing the number of colonies counted by the number of cells plated. Surviving fraction of cells exposed to the drugs was determined by dividing the number of colonies in wells that were exposed to the drug by the number of colonies in the control wells.

[9] = tested on: HT-29 human colon tumor xenografts; assay: In vivo efficacy against HT-29 xenografts; set-up: species or system mouse; settings: SCID mice, maytansinoid dose of 75 μg/kg, qd×5, intravenously
Description: (§3) Five-week-old female SCID mice (20 animals) were inoculated subcutaneously in the right flank with HT-29 human colon carcinoma cells (1.5×10^6 cells/mouse) in 0.1 mL of serum-free medium. The tumors were grown for 11 days to an average size of 100 mm^3. The animals were then randomly divided into four groups (5 animals per group). The first group received huC242-DM1 conjugate (DM1 dose of 75 μg/kg, qd×5) administered intravenously. The second group received huC242-DM3 conjugate (DM3 dose of 75 μg/kg, qd×5) administered intravenously. The third group received huC242-DM4 conjugate (DM4 dose of 75 μg/kg, qd×5), while a fourth group of animals served as controls and received PBS using the same treatment schedule as in groups 1-3.
The sizes of the tumors were measured twice weekly and the tumor volumes were calculated with the formula: tumor volume=½(length×width×height). The weight of the animals was also measured twice per week. The tumors in the control group of mice grew to a size of nearly 1000 mm^3 in 35 days.

[10] = tested on: COLO 205 human colon tumor xenografts; assay: In vivo efficacy against COLO 205 xenografts; set-up: species or system mouse; settings: SCID mice, maytansinoid dose of 75 μg/kg, qd×5, intravenously
Description: as §3, with “COLO 205” for “HT-29”
The sizes of the tumors were measured twice weekly and the tumor volumes were calculated with the formula: tumor volume=½(length×width×height). The weight of the animals was also measured twice per week. The tumors in the control group of mice grew to a size of nearly 900 mm^3 in 24 days.

Row | Molecule | IC50 [1] [nM] | IC50 (SK-BR-3 cells) [nM] | fold less sensitive, antigen negative A-375 cells versus COLO 205 cells [1] | IC50 [8] [nM] | tumor growth delay [9] [days] | also measured
1 | COc1cc2cc(c1Cl)N(C)C(=O)C[C@H](OC(=O)[C@H](C)N(C)C(=O)CCC(C)SSC)[C@]1(C)O[C@H]1[C@H](C)[C@@H]1C[C@@](O)(NC(=O)O1)[C@H](OC)/C=C/C=C(\C)C2 (some centres unmarked) [4c, N^2′-deacetyl-N^2′-(4-methyldithio-1-oxopentyl)maytansine] | 0.015 | 0.007 | – | – | – | –
2 | COc1cc2cc(c1Cl)N(C)C(=O)CC(OC(=O)[C@@H](C)N(C)C(=O)CCC(C)(C)SSC)C1(C)OC1C(C)C1CC(O)(NC(=O)O1)C(OC)/C=C/C=C(\C)C2 (some centres unmarked) [4e, N^2′-deacetyl-N^2′-(4-methyl-4-methyldithio-1-oxopentyl)maytansine] | 0.032 | 0.009 | – | – | – | –
3 | COc1cc2cc(c1Cl)N(C)C(=O)C[C@H](OC(=O)[C@H](C)N(C)C(C)=O)[C@]1(C)O[C@H]1[C@H](C)[C@@H]1C[C@@](O)(NC(=O)O1)[C@H](OC)/C=C/C=C(\C)C2 [maytansine, Maytansine] | – | – | – | – | – | cells accumulating in mitosis (L1210 cells): 67%; inhibition of in vitro growth [2]: active inhibitor; inhibitory concentration, as low as [3]: ≥ 10^−7 μg/ml; inhibitory activity [4]: significant inhibitory activity; inhibitory activity [5]: significant inhibitory activity; inhibitory activity [6]: significant inhibitory activity
4 | B1 | – | – | – | – | – | time in complete remission (CR) ([7]; SCID mice, i.v. once a day for 5 days): about 20 days; tumor growth delay ([7]; subcutaneous HL-60 xenograft, equivalent dose, FIG. 11): about 48 days
5 | B2 | – | – | about 500 fold | 0.013 | 28 | complete tumor regression lasting [10]: 45 days
6 | B3 | – | – | about 500 fold | 0.011 | 36 | tumor response (regression, cures) [10]: cures of all the treated mice; also recorded: cures of all the treated animals
